Measured values published in ChEMBL document CHEMBL5113369, “A review on the structure and pharmacological activity of phenylethanoid glycosides” (Eur J Med Chem, 2021).

Columns and labels:
Assay type in all cases: ADME, organism-based, Canis lupus familiaris
Details in all cases: in vivo, dose 10-40 mg/kg
[1] = Tmax in Beagle dog at 10 to 40 mg/kg, po measured up to 8 hrs by LC-MS/MS analysis
[2] = Half life in Beagle dog at 10 to 40 mg/kg, po measured up to 8 hrs by LC-MS/MS analysis
[3] = Oral bioavailability in Beagle dog at 10 to 40 mg/kg measured up to 8 hrs by LC-MS/MS analysis

Compound: C[C@@H]1O[C@@H](O[C@@H]2[C@@H](O)[C@H](OCCc3ccc(O)c(O)c3)O[C@H](CO)[C@H]2OC(=O)/C=C/c2ccc(O)c(O)c2)[C@H](O)[C@H](O)[C@H]1O [ACETOSIDE]
- Tmax [1]: 0.5 h
- half-life [2]: 1.5 h
- bioavailability [3]: 4%
